The subject of assay [1] is Vibrio cholerae MM920. Put plainly: Quorum sensing bioluminescence reporter assay. It is filed as cell-based. The following applies: for IC50: Vibrio cholerae, read-out: IC50 of QS inhibition in V. cholera.
Experimental: Bioluminescence assay was performed with mutant bacteria lacking the nucleotide sequences encoding the relevant autoinducers (AI). Additionally, the bacteria were cloned with bioluminescence reporter plasmids in order to measure their luminescence intensity when quorum sensing gene expression occurs. Ninety-six (96) well microtiter plate assays were used to assess AI activation (agonist) or inhibition (antagonist) of the following bacteria: Agrobacterium tumefaciens, which responds to the C8 autoinducer, and both Vibrio cholerae and Vibrio harveyi, which respond to the (S)-4,5-dihydroxy-2,3-pentanedione (DPD) autoinducer to communicate.
Agrobacterium tumefaciens A136 pCF218 pMV26 culture was grown in Luria-Bertani broth (LB; Miller's broth) supplemented with 25 μg/ml of kanamycin and 4.5 μg/ml of tetracycline at 28-30° C. for 24 h. Both Vibrio harveyi and Vibrio cholerae strains were grown in LB Broth (Lennox) supplemented with tetracycline at 30° C. for 24 h. The overnight cultures were diluted to an absorbance density (OD600) of 0.05 by fresh LB medium. The probiotic yogurt (e.g., kefir)-extracted molecules were tested at gradient concentration in two types of experiments: competition assay in the absence (activation/agonist) or presence (inhibition/antagonist) of 400 pM 3-oxo-C8-HSL (A. tumefaciens A136 pCF218 pMV26) CAI1 (Vibrio Cholerae MM920) 200 nM DPD (Vibrio harveyi MM30) and the OD600 of 0.05 by fresh LB medium. A clear bottom 96-well microliter plate was prepared with wells containing test compounds serially diluted into the LB medium (triplicates). A total of 100 μl of the diluted cells were added to each well. The control sample contained the bacteria and specific AI molecules without the yogurt extracted molecules. Luminescence was measured every 20 min for 19 h with continuous shaking at 30° C., using a Microtiter Plate Reader (Varioskan Flash, Thermo). Average luminescence values divided by OD600 values were plotted against the added compound concentration.
The effect of the Kefir biomass crude extract molecules on the following bacteria, A. tumefaciens A136, V. cholerae MM920 and V. harveyi MM30 were measured as described by Brenier et al. (2008). The overnight culture was diluted to an absorbance density (OD600) of 0.05 by fresh LB medium. A clear bottom 96-well microliter plate was prepared with wells containing test compounds serially diluted into the LB medium (triplicates). A total of 100 μL of the diluted cells was added to each well. The control sample contained the bacteria and specific autoinducer molecules without the kefir crude extracted molecules. Luminescence was measured every 20 min for 19 h with continuous shaking at 30° C., using a Microtiter Plate Reader (Varioskan Flash, Thermo). Two types of experiments were performed: a competition assay in the presence of 400 pM 3-oxo-C8-HSL (A. tumefaciens A136), CAI-1 (V. Cholerae MM920) 200 nM DPD (V. harveyi MM30) and the other in the absence of these AI's to measure agonistic activity of the crude extracted molecules. Average luminescence values divided by OD600 values were plotted against the added compound concentration.
Assay [2] has as its system V. cholerae VC1 WT. Put plainly: RT-qPCR of QS genes. It is filed as cell-based, Vibrio cholerae. Particulars: 100 μM. The protocol: RNA was extracted from wild-type strain VC1 cultured in LB lennox medium supplemented with or without 100 μM Tryptophol acetate or Tyrosol acetate grown to an A600 of approximately 1.0OD using the RNA Protect Bacteria reagent and the RNeasy® Mini Kit (Qiagen, Valencia, Calif.) as per the manufacturer's instructions, including the on-column DNase I digestion described by the manufacturer. Purified RNA was quantified using a Banalyzer (Eppendorf, Hamburg, Germany). cDNA was synthesized from 1 μg of RNA using PrimeScript™ RT reagent kit (Takara, Ohtsu, Japan). The reaction was incubated at 37° C. for 30 min, and 2 μl of cDNA was subjected to RT-PCR analysis on an AB Step One Plus PCR system (Applied Biosystems, Carlsbad, Calif.), using qPCRBIO SyGreen Blue mix Hi-ROX (PCR Biosystems, London, UK). RT-PCR was performed in a 96-well plate (Bio-Rad) in triplicate in a 20 μl volume. The mdh gene was used as an endogenous loading control for the reactions. The amount of transcript was analyzed with StepOnePlus Software V2.3 (Applied Biosystems Carlsbad, Calif.). Mdh forward primer 5′-[…]-3′ (SEQ ID NO: 1); Mdh reverse primer 5′-[…]-3′ (SEQ ID NO: 2); vpsT forward primer 5′-[…]-3′ (SEQ ID NO: 3); vpsT reverse primer 5′-[…]-3′ (SEQ ID NO: 4); ctxA forward primer 5′-[…]-3′ (SEQ ID NO: 5); ctxA reverse primer 5′-[…]-3′ (SEQ ID NO: 6); aphA forward primer 5′-[…]-3′ (SEQ ID NO: 7); aphA reverse primer 5′-[…]-3′ (SEQ ID NO: 8). For Transcriptome libraries construction, we used the purified RNA as described in section Quantitative Real-time PCR (RT-PCR) Analysis. The ribosomal RNA was depleted using MICROBExpress kit (Invitrogen by Thermo Fisher Scientific, Lithuania). The libraries preparation was performed using SMARTer Standard RNA-Seq kit (Takara Bio, USA) according to manufacture instruction. High Throughput Sequencing Analysis was done by Illumina HiSeq 2500, SR 50 bp and barcode Raw data quality values phred+33. the amount and percentage of reads that passed the sequencer's automated quality filter, control mapping value, error rate, and per-base quality scores indicate that the sequencing was of high quality. Only a small percentage of reads were discarded due to trimming and the peak of the length distribution is at the original length of 51. The Software and applications that were used for comparison analyses are Library quality control: FASTQC version 0.11.5; Trim_galore (uses cutadapt version 1.10); Mapping: Tophat2 version 2.1.0 (uses Bowtie2 version 2.2.6); Gene counting: HTseq-count version 0.6.1. For normalization and differential expression analysis, DESeq2 R package version 1.18.1 Input files. The reference genome used in the analysis was of Vibrio cholerae O1 biovar El Tor str. N16961, from the following link: ftp://ftp.ncbi.nlm.nih.gov/genomes/all/GCF/000/006/745/GCF_000006745.1_ASM674v1. Counting was performed using an annotation file downloaded at the following link: ftp://ftp.ncbi.nlm.nih.gov/genomes/all/GCF/000/006/745/GCF_000006745.1_ASM674v1/G CF_000006745.1_ASM674v1_genomic.gtf.gz. All these files can be found in our FTP server, see section 4-Analysis result files.

Assay [3] relates to Peritoneal macrophages. Description: In vitro LPS stimulation of peritoneal macrophages, cytokine ELISA (24 hr). The class given is cell-based, mice. Particulars: 100 μM, 0.1 μg/ml LPS. How it is done:
Peritoneal macrophages were harvested using the protocol as described previously (Zhang et al., 2008). Elicited macrophages were harvested from WT mice which had received a 2.5 ml intraperitoneal administration of 3% Brewer thioglycolate broth (Sigma, UK) 72 hr prior collection.
Peritoneal macrophages cells (5×10^5/ml) were cultured with 0.1 μg/ml Lipopolysaccharides (LPS-Escherichia coli serotype 0127:B8, Sigma-Aldrich) and in the presence of 100 μM: tryptophol acetate, tyrosol acetate, dopamine HCl, caffeic acid, or combination of tryptophol acetate and tyrosol acetate, for 24 hr. Following culture, supernatants were collected and stored at −20° C. for the detection of the IL-6 cytokine. For IL-la detection, the inventors induced macrophages lysis by adding fresh RPMI medium and thawing three times.
IL-la and IL-6 levels were measured in peritoneal exudate fluids and LPS-stimulated culture supernatants by ELISA. To detect the cytokines, a R&D ELISA kit (Catalog #MLA00 and DY406, respectively) was used as per the manufacturer's instructions. A standard curve was constructed using serial dilutions of purified IL-la or IL-6 starting at a concentration of 15 ng/ml.

Assay [4] is described as follows: Oxygen radical absorbance capacity (ORAC) assay. It is filed as biochemical. Particulars: AAPH-induced. The source says:
FIGS. 34A-34B are graphs showing the anti-oxidation effect of tryptophol acetate and tyrosol acetate. Anti-oxidative capacity of the molecules as measured by DPPH (34A) and ORAC (34B) assays. 34A. The results are presented as a percentage of absorbance inhibition (517 nm, the absorbance maximum of DPPH) in the presence of tryptophol acetate (1) alone, tyrosol acetate alone (2) alone, and 1+2 together. 34B. Fluorescence decay of fluorescein induced by AAPH in the absence or presence of 1 and 2. Reaction mixtures containing fluorescein (60 nM) and AAPH (18.75 mM) in 200 μl of phosphate buffer (75 mM, pH 7.4) were incubated at 37° C. for 800 min. Changes in fluorescence intensity emitted by fluorescein were monitored. Results are presented as the net area under the curve (AUC). Each value is the mean±SD of triplicate experiments. ***p<0.0001
The ORAC experiment measures the quenching of fluorescein emission by peroxyl radicals, and inhibition of the oxidation reaction by molecular species added to the solution.

Structures are written as SMILES. Like-named read-outs stand apart in the source and are kept apart here.

For the compound `CC(=O)OCCc1c[nH]c2ccccc12` [Tryptophol acetate], in assay [1] (high volume), the 50% inhibitory concentration (IC50) was found to be 12.7 ± 2 µM and the “Effect on QS in V. cholera, high volume” value was “inhibits QS”. Moreover, the “Effect on QS in V. cholera, low volume” value in assay [1] is reported as “activates QS”. In assay [2] (high cell density), the aphA expression result was “upregulation”, the ctxA expression entry is “significantly repressed”, the hapA expression entry is “lower expression” and the hapR expression entry is “significant downregulation”. Moreover, in assay [2] (high cell density), the vpsT expression result was “remarkable upregulation”. Further, in assay [3], the “Production of IL-6” value is “dramatically reduced” and the “Production of IL-la” value is given as “dramatically reduced”. Moreover, the “Fluorescence decay of fluorescein” value in assay [4] is on record as “around 400 min”.

With `CC(=O)OCCc1ccc(O)cc1` [Tyrosol acetate], in assay [1], the IC50 is 24.4 ± 2.4 µM and the “Effect on QS in V. cholera, low volume” value is “activates QS”. In assay [1] (high volume), the “Effect on QS in V. cholera, high volume” value is “totally inhibits QS”. Also, the “Effect on QS in V. cholera, high volume” value in assay [1] (high volume, listed as 180 molecule) is “totally inhibited QS”. In addition, the “Effect on QS in V. cholera, low volume” value in assay [1] (listed as 180 molecule) was “activated QS”. Besides, the “QS-related genes' expression” value in assay [2] is recorded as “affect QS-related genes' expression”. In addition, in assay [3], the “Production of IL-6” value is listed as “dramatically reduced” and the “Production of IL-la” value is given as “dramatically reduced”. The “Fluorescence decay of fluorescein” value in assay [4] was approximately 800 min.

For the origin of these results see patent US20220160680A1, “MICROORGANISM MIXTURES, MOLECULES DERIVED THEREFROM, AND METHODS OF USE THEREOF” (B. G. Negev Technologies and Applications Ltd., at …, priority 2018, published 2022).
